Data taken from US20130012466A1 (priority 2006, published 2013).
Like-named read-outs stand apart in the source and are kept apart here.

Columns and labels:
[1] = tested on: A549; assay: Cytotoxicity assay (cell titer-glo and calcein AM), A549; conditions: A549, % error in parentheses
[2] = tested on: Hep3B; assay: Cytotoxicity assay (cell titer-glo and calcein AM), Hep3B; conditions: Hep 3B, % error in parentheses
[3] = tested on: NCI-H460; assay: Cytotoxicity assay (cell titer-glo and calcein AM), NCI-H460; conditions: NCI-H460, % error in parentheses
[4] = tested on: Du145; assay: Cytotoxicity assay (cell titer-glo and calcein AM), Du145; conditions: Du145, % error in parentheses
[5] = tested on: SF-268; assay: Cytotoxicity assay (cell titer-glo and calcein AM), SF-268; conditions: SF-268, % error in parentheses
[6] = tested on: MCF7; assay: Cytotoxicity assay (cell titer-glo and calcein AM), MCF7
[7] = tested on: mouse mammary normal epithelial control cell line; assay: Cytotoxicity assay, normal control cell line
[8] = tested on: ADR-RES; assay: Cytotoxicity assay (cell titer-glo and calcein AM), ADR-RES; conditions: NCI/ADR RES, % error in parentheses
[9] = tested on: SK-OV-3; assay: Cytotoxicity assay (cell titer-glo and calcein AM), SK-OV-3; conditions: SK-OV-3, % error in parentheses
[10] = read-out: Cytotoxicity IC50, A549, CTG, CTG (cell titer-glo) readout
[11] = read-out: Cytotoxicity IC50, A549, calcein, calcein AM readout
[12] = read-out: Cytotoxicity IC50, Hep 3B, CTG, CTG (cell titer-glo) readout
[13] = read-out: Cytotoxicity IC50, Hep 3B, calcein, calcein AM readout
[14] = read-out: Cytotoxicity IC50, NCI-H460, CTG, CTG (cell titer-glo) readout
[15] = read-out: Cytotoxicity IC50, NCI-H460, calcein, calcein AM readout
[16] = read-out: Cytotoxicity IC50, Du145, CTG, CTG (cell titer-glo) readout
[17] = read-out: Cytotoxicity IC50, Du145, calcein, calcein AM readout
[18] = read-out: Cytotoxicity IC50, SF-268, CTG, CTG (cell titer-glo) readout
[19] = read-out: Cytotoxicity IC50, SF-268, calcein, calcein AM readout
[20] = read-out: Cytotoxicity IC50, MCF7, CTG, CTG (cell titer-glo) readout, % error in parentheses
[21] = read-out: Cytotoxicity IC50, MCF7, calcein, calcein AM readout, % error in parentheses
[22] = read-out: Cytotoxicity IC50, NmuMG, CTG, CTG (cell titer-glo) readout, % error in parentheses
[23] = read-out: Cytotoxicity IC50, NmuMG, calcein, calcein AM readout, % error in parentheses
[24] = read-out: Cytotoxicity IC50, NCI/ADR RES, CTG, CTG (cell titer-glo) readout
[25] = read-out: Cytotoxicity IC50, NCI/ADR RES, calcein, calcein AM readout
[26] = read-out: Cytotoxicity IC50, SK-OV-3, CTG, CTG (cell titer-glo) readout
[27] = read-out: Cytotoxicity IC50, SK-OV-3, calcein, calcein AM readout

Row | SMILES | IC50 [1, 10] | IC50 [1, 11] | IC50 [2, 12] | IC50 [2, 13] | IC50 [3, 14] | IC50 [3, 15] | IC50 [4, 16] | IC50 [4, 17] | IC50 [5, 18] | IC50 [5, 19] | IC50 [6, 20] | IC50 [6, 21] | IC50 [7, 22] | IC50 [7, 23] | IC50 [8, 24] | IC50 [8, 25] | IC50 [9, 26] | IC50 [9, 27]
1 | COc1cc2c(c(OC)c1OC)-c1ccc(OC)c(=O)cc1[C@@H](NC(=O)CN(OC)[C@@H]1OC[C@@H](O)[C@H](O)[C@@H]1O)CC2 [Col1, D-lyxoside] | 2.91 µM | 1.21 µM | 3.5 µM | 3.69 µM | 4.51 µM | 3.93 µM | 1.97 µM | 2 µM | 3.86 µM | 4 µM | 1.9 µM | 1.33 µM | > 10 µM | 6.49 µM | 2.63 µM | 1.91 µM | 4 µM | 4 µM
2 | COc1cc2c(c(OC)c1OC)-c1ccc(OC)c(=O)cc1[C@@H](NC(=O)CN(OC)[C@@H]1O[C@H](C)[C@@H](O)[C@H](O)[C@H]1O)CC2 [Col2, 6-deoxy-D-glucoside] | 8.78 µM | 7.94 µM | > 10 µM | > 10 µM | 7.24 µM | 5.42 µM | > 10 µM | > 7.79 µM | 8.43 µM | > 10 µM | 4.86 µM | 4.77 µM | > 10 µM | > 10 µM | > 10 µM | > 10 µM | 9.86 µM | > 10 µM
3 | COc1cc2c(c(OC)c1OC)-c1ccc(OC)c(=O)cc1[C@@H](NC(=O)CN(OC)[C@@H]1O[C@H](CO)[C@@H](O)C[C@H]1O)CC2 [Col3, 3-deoxy-D-glucoside] | 9.91 µM | > 10 µM | 5.16 µM | 4.07 µM | 8.37 µM | 1.96 µM | > 10 µM | 6.56 µM | 5.32 µM | 8.42 µM | 3.25 µM | > 10 µM | > 10 µM | > 10 µM | > 10 µM | > 10 µM | 4.42 µM | 4.21 µM
4 | COc1cc2c(c(OC)c1OC)-c1ccc(OC)c(=O)cc1[C@@H](NC(=O)CN(OC)[C@@H]1OC[C@@H](O)[C@H](O)[C@H]1O)CC2 [Col4, D-xyloside] | > 10 µM | > 10 µM | > 10 µM | > 3.35 µM | > 10 µM | > 10 µM | > 10 µM | > 10 µM | 8.26 µM | 8.93 µM | > 10 µM | > 10 µM | > 10 µM | > 10 µM | > 10 µM | > 10 µM | > 10 µM | > 10 µM
5 | COc1cc2c(c(OC)c1OC)-c1ccc(OC)c(=O)cc1[C@@H](NC(=O)CN(OC)[C@@H]1OC[C@@H](O)[C@@H](O)[C@H]1O)CC2 [Col5, D-riboside] | > 10 µM | > 10 µM | 9.86 µM | 6.52 µM | 5.06 µM | 5.76 µM | > 10 µM | 6.78 µM | 5.01 µM | 4.59 µM | 2.84 µM | 2.88 µM | > 10 µM | > 10 µM | 4.84 µM | 5.06 µM | > 10 µM | > 10 µM
6 | COc1cc2c(c(OC)c1OC)-c1ccc(OC)c(=O)cc1C(NC(=O)CN(OC)C1OCC(O)C(O)C1O)CC2 [Col7, L-lyxoside] | > 10 µM | 9.76 µM | 4.89 µM | 4.74 µM | 7.08 µM | 5.69 µM | > 10 µM | 4.73 µM | 4.97 µM | 4.9 µM | 2.65 µM | 3.99 µM | > 10 µM | > 10 µM | > 10 µM | > 10 µM | > 10 µM | 5.04 µM
7 | COc1cc2c(c(OC)c1OC)-c1ccc(OC)c(=O)cc1[C@@H](NC(=O)CN(OC)[C@@H]1O[C@H](C)[C@H](O)[C@H](O)[C@H]1O)CC2 [Col9, D-fucoside] | > 10 µM | > 10 µM | > 10 µM | > 10 µM | > 10 µM | > 10 µM | > 10 µM | > 9.14 µM | > 10 µM | > 10 µM | > 9.96 µM | > 8.75 µM | > 10 µM | > 10 µM | > 10 µM | > 10 µM | > 10 µM | > 7.83 µM
8 | COc1cc2c(c(OC)c1OC)-c1ccc(OC)c(=O)cc1[C@@H](NC(C)=O)CC2 [Col] |  |  | > 10 µM | 9.38 µM |  |  | > 10 µM | 4.67 µM | > 10 µM | > 10 µM |  |  |  |  | > 10 µM | 6.32 µM | > 10 µM | 
9 | COc1cccc2c1C(=O)c1c(O)c3c(c(O)c1C2=O)C[C@@](O)(C(=O)CO)C[C@@H]3O[C@H]1C[C@H](N)[C@H](O)[C@H](C)O1 [doxorubi] |  |  | 0.519 µM | 0.268 µM |  |  | 0.842 µM | 0.339 µM | 0.249 µM | 0.385 µM |  |  |  |  | 0.57 µM |  | 0.394 µM | 0.621 µM
